Assay results from US20140228299A1, “PROPHYLACTIC AND THERAPEUTIC AGENT FOR NEUROLOGICAL DISEASES USING LIPOPROTEINS AND PROPHYLACTIC AND THERAPEUTIC METHOD FOR NEUROLOGICAL DISEASES” (National University Corporation Tokyo Medical and Dental …, priority 2011, published 2014).
Non-standard residues stand in square brackets, D forms with d. Residues, ends and D or L forms follow the SMILES beside them. *: point of attachment. Nle = CCCC[C@H](N)C(=O)O; Cbz = O=C(OCc1ccccc1)*; CH2F = FC*

Test system: retinal ganglion cells
Experiment: Glutamic acid-induced apoptosis of cultured retinal ganglion cells (Hoechst 33342 or calcein AM/propidium iodide staining)
Assay type: cell-based, rat
Conditions: for apoptosis of retinal cells induced by glutamic acid (apoptosis-like cells): Hoechst 33342
Experimental: The primary culture of the retinal glia cells was carried out using two-day-old Sprague Dawley (SD) baby rats in accordance with a somewhat modified method (Hayashi et al., J. Biol. Chem. 2009) of the method of Barres et al. (Barres, et al., 1988). The isolated retinal glia cells (RGC) were suspended in a base culture medium of a RGC medium (1 mM glutamine, 5 μg/mL insulin, 60 μg/mL N-acetylcysteine, 62 ng/mL progesterone, 16 μg/mL putrescine, 40 ng/mL sodium selenite, 0.1 mg/mL bovine serum albumin, 40 ng/mL triiodothyronine, 0.1 mg/mL transferrin, 1 mM sodium pyruvate, 2% B27 supplement (Invitrogen, Carlsbad, Calif.), 10 μM forskolin (Sigma, St. Louis, Mo.), 50 ng/mL brain-derived neurotrophic factor (BDNF; PeproTech, Rocky Hill, N.J.), 50 ng/mL ciliary neurotrophic factor (CNTF; Peprotech), and 50 ng/mL basic fibroblast growth factor (bFGF; PeproTech). A 96-well plate was coated with poly-d-lysine (Sigma) and laminin (Sigma), and RGC was placed at the rate of 5,000 cells per well for the 96-well place, 5,000 cells per each culture insert for microdish, or 15,000 cells per dish for compartmentalized culture, followed by incubating for at least 10 days before experimentation.
In the figure, Cant represents a non-treated group, Glu represents a group with 300 μM glutamic acid added, and +glial LP represents a group with 300 μM glutamate+glia-cell-derived lipoprotein containing apolipoprotein E added. Glial LP was added in the concentration of 1 μg cholesterol/mL. After treatment, the rate of apoptosis-like cells was computed by observing the aggregation of the nuclei (a: nuclear staining with Hoechst 33342) or the sustained impermeability of esterase activity/membrane (b: calcein AM/Propidium Iodide staining) in 24 hours.
The induction and detection of apoptosis in RGC were performed in the manner as described below. Specifically, RGC was washed twice with Hanks' balanced salt solution (HBSS) containing 2.4 mM CaCl2 and 20 mM HEPES, but not containing magnesium, and incubated at 37° C. for 2 hours in a medium prepared by adding 300 μM glutamate and 10 μM glycine to the above Hanks' balanced salt solution. After treatment with glutamate, RGC was incubated at 37° C. for 22 hours in a RGC culture medium containing no forskolin, BDNF, CNTF and bFGF. In order to detect apoptosis, RGC was stained with 1 μg/mL of Hoechst 33342 (346-07951, Dojindo, Kumamoto, Japan) or 1 μg/mL of calcein-AM/propidium iodide (341-07381, Dojindo). The fluorescence images were observed by Olympus IX71 microscope. The fragmented or aggregated nuclei stained with the above Hoechst reagent were counted as apoptotic nuclei, and round and smooth nuclei were counted as sound nuclei. As the sound nuclei were not stained with propidium iodide, the nuclei stained with propidium iodide were counted as apoptotic nuclei. More than 300 nuclei were counted in each group.
The apoptosis of RGC was measured in the following manner. The RGC subjected to the primary incubated was incubated two times at 37° C. for 15 minutes using Hanks' Balanced Salt Solution (HBSS) containing 2.4 mM CaCl2 and 20 mM 4-(2-hydroxyethyl)-pyperazine-1-ethanesulfonic acid (HEPES) but containing no magnesium and then washed. […], the magnesium was removed from the washing solution. Thereafter, the RGC was treated or not treated with […] (a co-activating agent for the NMDA receptor) in HBSS containing 2.4 mM CaCl2 and 20 mM HEPES (without magnesium) and then incubated at 37° C. for 2 hours. A control (HBSS containing 2.4 mM CaCl2 and 20 mM HEPES (without containing magnesium)) or the RGC treated or not treated with glutamic acid was incubated at 37° C. for 22 hours in the same medium as used for the RGC (without forskolin, brain-derived neurotrophic factor, ciliary neurotrophic factor and basic fibroblast growth factor). […]

## CCCC[C@@H](C=O)NC(=O)[C@H](CC(C)C)NC(=O)[C@H](CC(C)C)NC(C)=O [ALLN, reference compound] (Ac-Leu-Leu-[Nle]-aldehyde)
Inhibitor 1 μM
  apoptosis of retinal cells induced by glutamic acid (apoptosis-like cells): inhibition of apoptosis

## C[C@]12N[C@H](Cc3ccccc31)c1ccccc12 [MK 801, reference compound]
Inhibitor 10 μM
  apoptosis of retinal cells induced by glutamic acid (apoptosis-like cells): inhibition of apoptosis

## COC(=O)C[C@H](NC(=O)[C@H](C)NC(=O)[C@@H](NC(=O)OCc1ccccc1)C(C)C)C(=O)CF [Z-VAD-FMK, reference compound] (Cbz-Val-Ala-Asp(OMe)-CH2F)
Inhibitor 20 μM
  apoptosis of retinal cells induced by glutamic acid (apoptosis-like cells): apoptosis inhibition

B1: α2-macroglobulin: α2-macroglobulin activated with methylamine; hinders neuroprotection by apoE-containing lipoprotein (protein, UniProt P01023 24-1474, looked up)
Alpha-2-macroglobulin: SVSGKPQYMVLVPSLLHTETTEKGCVLLSYLNETVTVSASLESVRGNRSLFTDLEAENDVLHCVAFAVPKSSSNEEVMFLTVQVKGPTQEFKKRTTVMVKNEDSLVFVQTDKSIYKPGQTVKFRVVSMDENFHPLNELIPLVYIQDPKGNRIAQWQSFQLEGGLKQFSFPLSSEPFQGSYKVVVQKKSGGRTEHPFTVEEFVLPKFEVQVTVPKIITILEEEMNVSVCGLYTYGKPVPGHVTVSICRKYSDASDCHGEDSQAFCEKFSGQLNSHGCFYQQVKTKVFQLKRKEYEMKLHTEAQIQEEGTVVELTGRQSSEITRTITKLSFVKVDSHFRQGIPFFGQVRLVDGKGVPIPNKVIFIRGNEANYYSNATTDEHGLVQFSINTTNVMGTSLTVRVNYKDRSPCYGYQWVSEEHEEAHHTAYLVFSPSKSFVHLEPMSHELPCGHTQTVQAHYILNGGTLLGLKKLSFYYLIMAKGGIVRTGTHGLLVKQEDMKGHFSISIPVKSDIAPVARLLIYAVLPTGDVIGDSAKYDVENCLANKVDLSFSPSQSLPASHAHLRVTAAPQSVCALRAVDQSVLLMKPDAELSASSVYNLLPEKDLTGFPGPLNDQDNEDCINRHNVYINGITYTPVSSTNEKDMYSFLEDMGLKAFTNSKIRKPKMCPQLQQYEMHGPEGLRVGFYESDVMGRGHARLVHVEEPHTETVRKYFPETWIWDLVVVNSAGVAEVGVTVPDTITEWKAGAFCLSEDAGLGISSTASLRAFQPFFVELTMPYSVIRGEAFTLKATVLNYLPKCIRVSVQLEASPAFLAVPVEKEQAPHCICANGRQTVSWAVTPKSLGNVNFTVSAEALESQELCGTEVPSVPEHGRKDTVIKPLLVEPEGLEKETTFNSLLCPSGGEVSEELSLKLPPNVVEESARASVSVLGDILGSAMQNTQNLLQMPYGCGEQNMVLFAPNIYVLDYLNETQQLTPEIKSKAIGYLNTGYQRQLNYKHYDGSYSTFGERYGRNQGNTWLTAFVLKTFAQARAYIFIDEAHITQALIWLSQRQKDNGCFRSSGSLLNNAIKGGVEDEVTLSAYITIALLEIPLTVTHPVVRNALFCLESAWKTAQEGDHGSHVYTKALLAYAFALAGNQDKRKEVLKSLNEEAVKKDNSVHWERPQKPKAPVGHFYEPQAPSAEVEMTSYVLLAYLTAQPAPTSEDLTSATNIVKWITKQQNAQGGFSSTQDTVVALHALSKYGAATFTRTGKAAQVTIQSSGTFSSKFQVDNNNRLLLQQVSLPELPGEYSMKVTGEGCVYLQTSLKYNILPEKEEFPFALGVQTLPQTCDEPKAHTSFQISLSVSYTGSRSASNMAIVDVKMVSGFIPLKPTVKMLERSNHVSRTEVSSNHVLIYLDKVSNQTLSLFFTVLQDVPVRDLKPAIVKVYDYYETDEFAIAEYNAPCSKDLGNA
Glu+100 ng protein/mL E-LP in the presence of a2M
  effect on the neuroprotective effects of the lipoprotein containing apoE: hinders the neuroprotective effects
